From publication PMC2778353, “Toxicity of Xanthene Food Dyes by Inhibition of Human Drug-Metabolizing Enzymes in a Noncompetitive Manner” (Journal of Environmental and Public Health, 2009)
Where two headings read alike, the source gives them in different places. Values belong to the compound of their own block, whether it stands above or below them.

Tests used:
UGT1A6 [1] = target: T1, UGT1A6 (Homo sapiens, UniProt P19224); assay: Inhibition of UGT1A6 activity (glucuronidation of p-nitrophenol) in pooled human liver microsomes; conditions: for Difference of UGT1A6 activity between dark and light: 0.3 mM p-NP
T1 sequence (P19224 27-532): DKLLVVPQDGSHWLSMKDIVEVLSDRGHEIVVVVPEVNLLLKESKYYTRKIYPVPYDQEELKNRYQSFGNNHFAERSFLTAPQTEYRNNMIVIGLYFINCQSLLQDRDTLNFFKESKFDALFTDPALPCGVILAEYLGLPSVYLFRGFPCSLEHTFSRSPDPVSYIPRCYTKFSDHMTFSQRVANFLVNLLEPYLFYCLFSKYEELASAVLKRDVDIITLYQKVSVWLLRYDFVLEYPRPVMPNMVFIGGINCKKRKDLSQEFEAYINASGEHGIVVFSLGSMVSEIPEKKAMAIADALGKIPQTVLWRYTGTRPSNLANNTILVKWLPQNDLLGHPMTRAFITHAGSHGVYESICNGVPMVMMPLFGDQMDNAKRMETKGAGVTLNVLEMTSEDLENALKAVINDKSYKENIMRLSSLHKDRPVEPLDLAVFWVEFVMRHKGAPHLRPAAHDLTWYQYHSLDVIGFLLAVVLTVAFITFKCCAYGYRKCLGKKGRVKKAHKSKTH
Experimental: (§2) The enzyme source to measure CYP2A6, CYP3A4, and UGT1A6 activities was pooled human liver microsomes (HLMs), purchased from Gentest (Woburn, MA, USA). […] These enzymes were stored at −80°C.
(§3) The microassay method of UGT activity in this study was carried out according to previous reports [5, 51]. […] In order to investigate the role of reactive oxygen species on the inhibition of UGT1A6 by dyes, we studied the effect of SOD and catalase.
(§4) The inhibition of UGT1A6 activity with p-nitrophenol [5] and of UGT2B7 with androsterone by dyes was studied.

P-glycoprotein = P-glycoprotein (Homo sapiens, UniProt P08183); assay: in vitro
Experimental: (§1) These enzymes were stored at −80°C. Superoxide dismutase (SOD) and catalase are products of Sigma.

CYP3A4 = target: T2, CYP3A4 (Homo sapiens, UniProt P08684); assay: Inhibition of CYP3A4 activity in pooled human liver microsomes (7-benzoyloxy-4-(trifluoromethyl)-coumarin substrate); assay type: biochemical; conditions: for IC50: pooled human liver microsomes
T2 construct: pooled human liver microsomes (HLMs), purchased from Gentest; tissue Gentest (Woburn, MA, USA); host or cells: pooled human liver microsomes
Experimental: as §1
CYP3A4 is a major enzyme among phase I drug-metabolizing enzymes and reacts with half of all drugs. To determine the influence of CYP3A4 activity by food dyes, the color of dyes influencing the fluorometric measurement over 30 μM dye concentration was measured. This background was subtracted from the measurement of color pigments.

[2] = target: P-glycoprotein (ATPase activity) (Homo sapiens, UniProt P08183); assay: in vitro; conditions: human
Experimental: as §1

UGT2B7 = target: T3, UGT2B7 (Homo sapiens, UniProt P16662); assay: Inhibition of UGT2B7 activity (glucuronidation of androsterone), Sf9 cell membrane; assay type: biochemical
T3 construct: purchased Gentest; host or cells: Sf9 cells, baculovirus expression system
T3 sequence (P16662 24-529): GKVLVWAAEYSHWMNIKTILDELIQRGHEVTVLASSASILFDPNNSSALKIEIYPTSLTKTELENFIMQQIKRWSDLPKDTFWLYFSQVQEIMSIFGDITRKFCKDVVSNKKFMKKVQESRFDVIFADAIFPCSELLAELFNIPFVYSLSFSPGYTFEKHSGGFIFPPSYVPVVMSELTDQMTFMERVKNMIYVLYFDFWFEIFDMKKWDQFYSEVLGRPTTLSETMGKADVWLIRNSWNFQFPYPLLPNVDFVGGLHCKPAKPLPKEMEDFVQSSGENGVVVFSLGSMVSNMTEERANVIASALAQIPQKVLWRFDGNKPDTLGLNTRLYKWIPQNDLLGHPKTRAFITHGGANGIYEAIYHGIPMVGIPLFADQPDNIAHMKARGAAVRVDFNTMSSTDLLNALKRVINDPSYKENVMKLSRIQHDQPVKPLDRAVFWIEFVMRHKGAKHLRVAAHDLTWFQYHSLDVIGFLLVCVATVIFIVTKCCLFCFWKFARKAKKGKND
Experimental: as §1

UGT1A6 [3] = target: T1, UGT1A6; assay: in vitro
Experimental: as §2, §3, §4

[4] = read-out: IC50 value P-glycoprotein, ATPase activity of P-gp membrane
[5] = human, probe 7-benzoyloxy-4-(trifluoromethyl)-coumarin
[6] = human, pooled human liver microsomes, probe p-nitrophenol
[7] = glucuronidation inhibition by RB

T2 sequence (P08684 whole entry): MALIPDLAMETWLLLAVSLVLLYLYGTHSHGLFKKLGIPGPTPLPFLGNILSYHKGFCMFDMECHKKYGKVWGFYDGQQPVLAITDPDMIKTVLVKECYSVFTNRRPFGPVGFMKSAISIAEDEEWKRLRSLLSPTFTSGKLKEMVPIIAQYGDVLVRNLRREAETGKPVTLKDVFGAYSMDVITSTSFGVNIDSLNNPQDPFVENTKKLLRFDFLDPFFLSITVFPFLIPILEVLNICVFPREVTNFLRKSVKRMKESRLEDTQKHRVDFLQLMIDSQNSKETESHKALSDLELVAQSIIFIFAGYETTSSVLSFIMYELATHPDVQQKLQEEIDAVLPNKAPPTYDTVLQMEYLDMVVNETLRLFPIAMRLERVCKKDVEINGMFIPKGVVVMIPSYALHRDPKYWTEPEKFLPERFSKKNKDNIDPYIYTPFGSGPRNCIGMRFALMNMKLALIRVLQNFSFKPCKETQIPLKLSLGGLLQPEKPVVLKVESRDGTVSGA
Chain of P-glycoprotein (P08183 whole entry): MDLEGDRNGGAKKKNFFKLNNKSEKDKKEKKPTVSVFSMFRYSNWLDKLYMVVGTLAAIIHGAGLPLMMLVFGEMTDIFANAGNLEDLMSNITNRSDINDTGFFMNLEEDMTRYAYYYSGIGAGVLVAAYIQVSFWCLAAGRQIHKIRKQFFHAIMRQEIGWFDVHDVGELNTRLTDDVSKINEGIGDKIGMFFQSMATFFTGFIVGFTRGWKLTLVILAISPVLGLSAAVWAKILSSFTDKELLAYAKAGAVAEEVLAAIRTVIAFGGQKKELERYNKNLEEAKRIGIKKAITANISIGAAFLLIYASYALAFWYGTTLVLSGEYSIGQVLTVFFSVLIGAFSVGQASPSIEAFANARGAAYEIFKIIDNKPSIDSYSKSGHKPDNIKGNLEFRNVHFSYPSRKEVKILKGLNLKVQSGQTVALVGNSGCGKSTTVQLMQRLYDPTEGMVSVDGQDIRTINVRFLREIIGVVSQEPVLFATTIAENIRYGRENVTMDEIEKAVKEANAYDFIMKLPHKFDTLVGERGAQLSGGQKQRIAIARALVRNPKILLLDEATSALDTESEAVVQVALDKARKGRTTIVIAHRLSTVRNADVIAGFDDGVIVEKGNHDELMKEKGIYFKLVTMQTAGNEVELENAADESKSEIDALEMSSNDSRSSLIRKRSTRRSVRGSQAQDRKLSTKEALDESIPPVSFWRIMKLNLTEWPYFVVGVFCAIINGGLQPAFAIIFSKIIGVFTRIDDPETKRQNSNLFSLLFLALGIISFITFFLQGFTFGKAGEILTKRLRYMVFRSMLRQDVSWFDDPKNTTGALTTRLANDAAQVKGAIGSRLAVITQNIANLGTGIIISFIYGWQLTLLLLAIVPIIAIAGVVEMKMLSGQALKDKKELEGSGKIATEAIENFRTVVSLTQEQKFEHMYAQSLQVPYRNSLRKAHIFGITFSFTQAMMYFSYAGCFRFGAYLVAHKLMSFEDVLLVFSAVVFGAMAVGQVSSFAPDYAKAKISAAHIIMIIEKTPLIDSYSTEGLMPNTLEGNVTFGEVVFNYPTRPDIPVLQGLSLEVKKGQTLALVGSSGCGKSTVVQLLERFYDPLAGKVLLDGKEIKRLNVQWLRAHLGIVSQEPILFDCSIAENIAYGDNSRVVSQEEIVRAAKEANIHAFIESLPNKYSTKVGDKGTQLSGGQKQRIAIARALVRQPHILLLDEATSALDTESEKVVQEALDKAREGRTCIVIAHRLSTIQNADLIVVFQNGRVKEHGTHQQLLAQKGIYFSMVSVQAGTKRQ
Chain of P-glycoprotein (ATPase activity) (P08183 whole entry): as above

Compound: O=S(=O)([O-])c1ccc(N=Nc2c(O)ccc3cc(S(=O)(=O)[O-])ccc23)cc1.[Na+].[Na+] [Sunset yellow FCF (SY), sunset yellow FCF]
Inhibition of UGT1A6 activity (in words) (UGT1A6 [1]): no inhibition
IC50 (P-glycoprotein; [4]): > 1000 µM
IC50 (CYP3A4): > 1000 µM

Compound: [N-]=[N+]=[N-].[Na+] [NaN3, reference compound]
Prevention of RB inhibition of UGT1A6 by 1O2 quencher (UGT1A6 [1]): significantly prevented
Inhibition of glucuronidation of p-NP by UGT1A6 by quencher itself (UGT1A6 [1]; 1 to 20 mM): no inhibition

Compound: COc1cc(S(=O)(=O)[O-])c(C)cc1N=Nc1c(O)ccc2cc(S(=O)(=O)[O-])ccc12.[Na+].[Na+] [Allura red (AL), allura red]
Inhibition of UGT1A6 activity (in words) (UGT1A6 [1]): insignificant inhibition
IC50 (P-glycoprotein; [4]): > 1000 µM
IC50 (CYP3A4): > 1000 µM

Compound: O=S(=O)(O)c1cc(S(=O)(=O)O)c2c(N=Nc3ccc(S(=O)(=O)O)c4ccccc34)c(O)ccc2c1 [New coccine (NC), new coccine]
IC50 (UGT1A6 [1]; read-out: IC50 value UGT1A6, pooled human liver microsomes, p-nitrophenol glucuronidation): > 1000 µM
IC50 (P-glycoprotein; [4]): > 1000 µM
IC50 (CYP3A4): > 1000 µM

Compound: O=C(O)c1c(Cl)c(Cl)c(Cl)c(Cl)c1-c1c2cc(Br)c(=O)c(Br)c-2oc2c(Br)c(O)c(Br)cc12 [Phloxine (PL), phloxine]
Type of inhibition of UGT1A6 (Lineweaver-Burk plots) (UGT1A6 [1]): non-competitive
Inhibition of P-gp (in words) (P-glycoprotein): well inhibited
IC50 [2]: 24.5 µM
Type of inhibition of UGT2B7 (UGT2B7): non-competitive
Inhibition of CYP3A4 (in words) (CYP3A4): showed inhibition
IC50 (CYP3A4; [5]): 5.6 µM
IC50 (UGT1A6 [3]): 40 µM

Compound: O=C(O)c1cc(N=C=S)ccc1-c1c2cc(Br)c(=O)c(Br)c-2oc2c(Br)c(O)c(Br)cc12 [Dye E5ic, Eosin-5-isothiocyanate, reference compound]
IC50 (UGT1A6 [1]; [6]): 70 µM

Compound: O=C([O-])C1=NN(c2ccc(S(=O)(=O)[O-])cc2)C(=O)C1N=Nc1ccc(S(=O)(=O)[O-])cc1.[Na+].[Na+].[Na+] (stereo not drawn) [Tartrazine (TT), tartrazine]
Inhibition of UGT1A6 activity (in words) (UGT1A6 [1]): no inhibition
IC50 (P-glycoprotein): > 1000 µM
IC50 (CYP3A4): > 1000 µM

Compound: O=C(O)c1c(Cl)c(Cl)c(Cl)c(Cl)c1-c1c2cc(I)c(=O)c(I)c-2oc2c(I)c(O)c(I)cc12 [Rose Bengal (RB), rose bengal]
Type of inhibition of UGT1A6 (Lineweaver-Burk plots) (UGT1A6 [1]): non-competitive
Difference of UGT1A6 activity between dark and light (UGT1A6 [1]; 0.1 mM RB): could not find a significant difference
Difference of UGT1A6 activity between dark and light (UGT1A6 [1]; 0.01, 0.02, and 0.05 mM RB): significant difference
UGT1A6 activity in D2O relative to H2O in presence of RB (UGT1A6 [1]; D2O solution versus water): approximately half
IC50 (UGT1A6 [1]; [6]): 15 µM
Inhibition of P-gp (in words) (P-glycoprotein): well inhibited
IC50 [2]: 11.7 µM
Type of inhibition of UGT2B7 (UGT2B7): non-competitive
Inhibition of CYP3A4 (in words) (CYP3A4): showed inhibition
IC50 (CYP3A4; [5]): 21.2 µM

Compound: O=S(=O)([O-])c1ccc2c(N=Nc3ccc(S(=O)(=O)[O-])c4ccccc34)c(O)c(S(=O)(=O)[O-])cc2c1.[Na+].[Na+].[Na+] [Amaranth (AM), amaranth]
Inhibition of UGT1A6 activity (in words) (UGT1A6 [1]): insignificant inhibition
IC50 (P-glycoprotein): > 1000 µM
Inhibition of CYP3A4 (in words) (CYP3A4): noninhibition
IC50 (CYP3A4): > 1000 µM

Compound: O=C(O)c1ccccc1-c1c2ccc(=O)cc-2oc2cc(O)ccc12 [Uranine, reference compound]
Inhibition of UGT1A6 activity (in words) (UGT1A6 [1]): did not inhibit
IC50 (UGT1A6 [1]; [6]): > 1000 µM

Compound: CCN(Cc1cccc(S(=O)(=O)[O-])c1)c1ccc(C(=C2C=CC(=[N+](CC)Cc3cccc(S(=O)(=O)[O-])c3)C=C2)c2ccccc2S(=O)(=O)[O-])cc1.[Na+].[Na+] [Brilliant blue FCF (BB), brilliant blue FCF]
Inhibition of UGT1A6 activity (in words) (UGT1A6 [1]): insignificant inhibition
IC50 (P-glycoprotein): > 1000 µM
IC50 (CYP3A4): > 1000 µM

Compound: O=C1/C(=C2\Nc3ccc(S(=O)(=O)[O-])cc3C2=O)Nc2ccc(S(=O)(=O)[O-])cc21.[Na+].[Na+] [Indigo carmine (ID), indigo carmine]
Inhibition of UGT1A6 activity (in words) (UGT1A6 [1]): no inhibition
IC50 (P-glycoprotein): > 1000 µM
IC50 (CYP3A4): > 1000 µM

Compound: O=C1OC2(c3ccccc31)c1cc(I)c(O)c(I)c1Oc1c2cc(I)c(O)c1I [Erythrosine B (ET), erythrosine]
IC50 (UGT1A6 [1]): 50 µM
Inhibition of UGT1A6 activity (in words) (UGT1A6 [1]): greatest inhibition
Substrate activity for UGT1A6 (UGT1A6 [1]): no substrate activity
Type of inhibition of UGT1A6 (Lineweaver-Burk plots) (UGT1A6 [1]): non-competitive
IC50 (UGT1A6 [1]; [6]): 70 µM
IC50 (P-glycoprotein): 15.6 µM
Inhibition of P-gp (in words) (P-glycoprotein): well inhibited
Type of inhibition of UGT2B7 (UGT2B7): non-competitive
Inhibition of UGT2B7 (in words) (UGT2B7; androsterone glucuronidation): inhibited
Inhibition of CYP3A4 at 30 μM (CYP3A4; 30 μM dye): completely inhibited

Further lines, results first:

IC50 (UGT1A6 [1]): > 1000 µM
Inhibition of UGT1A6 activity (in words) (UGT1A6 [1]): did not inhibit
Compound: CCN(CC)c1ccc2c(-c3ccccc3C(=O)O)c3ccc(=[N+](CC)CC)cc-3oc2c1 [rhodamine, reference compound]

Inhibition of UGT1A6 activity (in words) (UGT1A6 [1]): no inhibition
Compound: CNC(=O)c1c(I)c(NC(C)=O)c(I)c(C(=O)O)c1I.CNC[C@H](O)[C@@H](O)[C@H](O)[C@H](O)CO [meglumine iotalamate, reference compound]

IC50 (UGT1A6 [1]): > 1000 µM
Inhibition of UGT1A6 activity (in words) (UGT1A6 [1]): did not inhibit
Compound: c1ccc2c(c1)Cc1ccccc1O2 [Xanthene]

Inhibition of UGT1A6 activity (in words) (UGT1A6 [1]): no inhibition
Compound: CC(=O)N(CC(O)CN(C(C)=O)c1c(I)c(C(=O)NCC(O)CO)c(I)c(C(=O)NCC(O)CO)c1I)c1c(I)c(C(=O)NCC(O)CO)c(I)c(C(=O)NCC(O)CO)c1I (stereo not drawn) [iodixanol, reference compound]

Inhibition of UGT1A6 activity (in words) (UGT1A6 [1]): no inhibition
Compound: CC(=O)Nc1c(I)c(NC(C)=O)c(I)c(C(=O)[O-])c1I.[Na+] [sodium diatrizoate, reference compound]

Inhibition of glucuronidation of p-NP by UGT1A6 by quencher itself (UGT1A6 [1]; 0.2–0.5 mM): no inhibition
Prevention of RB inhibition of UGT1A6 by 1O2 quencher (UGT1A6 [1]; [7]): did not
Compound: CC1=C(/C=C/C(C)=C/C=C/C(C)=C/C=C/C=C(C)/C=C/C=C(C)/C=C/C2=C(C)CCCC2(C)C)C(C)(C)CCC1 [β-carotene, reference compound]

Prevention of ET inhibition of UGT1A6 (UGT1A6 [1]; added to the mixture of UGT1A6 inhibition by ET): no prevention
Compound: catalase

Inhibition of glucuronidation of p-NP by UGT1A6 by quencher itself (UGT1A6 [1]; 1 to 20 mM): no inhibition
Prevention of RB inhibition of UGT1A6 by 1O2 quencher (UGT1A6 [1]; [7]): significantly prevented
Compound: N[C@@H](Cc1c[nH]cn1)C(=O)O [histidine, reference compound]
